Twelve compounds from patent US7371741B2, “Estradiol derivatives and pharmaceutical compositions using same” (EntreMed, Inc., priority 2003, dated 2008) can be followed below.

One assay concerns PC3: prostate cancer. The experiment in a line: In vitro anti-proliferative activity, BrdU incorporation, PC3. Format: cell-based. Conditions: PC3 cells, 50% inhibition of proliferation, BrdU incorporation into DNA. The method, then:
(§1) Determination of in vitro anti-proliferative activity of substituted estradiol analogs: In vitro anti-proliferative or anti-mitogenic activity was determined using a commercially available cell-based assay in 96-well tissue culture plates with assessment of proliferation by evaluating DNA synthesis through incorporation into DNA of immuno-reactive (BrdU) nucleotides. The cell types used are commercially available (MDA-MB-231: breast cancer; U87-MG: glioblastoma; PC3: prostate cancer; HUVEC: non-transformed early passage human umbilical vein endothelial cells). These assays, and the many assay variations possible to determine in vitro anti-proliferative or anti-mitogenic activity, are well known to those skilled in the art. The concentration which causes 50% inhibition of proliferation (IC50) was estimated from a dose-response curve generally carried out with a range of concentrations from ≧100 microg/mL to ≦0.01 microg/mL.
(Uptake of a labelled nucleoside into DNA is a usual measure of proliferation.)

Assay [1] relates to MDA-MB-231: breast cancer. The experiment in a line: In vitro anti-proliferative activity, BrdU incorporation, MDA-MB-231. Format: cell-based. As to conditions: MDA-MB-231 cells, 50% inhibition of proliferation, BrdU incorporation into DNA. Here is the method: as §1
In assay [2] the test system is chick embryo chorioallantoic membrane. Briefly: Chick embryo chorioallantoic membrane (CAM) assay. The class given is in vivo. As to conditions: 100 μg methylcellulose disk, after 48 hours. An excerpt: Anti-proliferative activity can be evaluated in situ by testing the ability of an improved estradiol derivative to inhibit the proliferation of new blood vessel cells (angiogenesis). A suitable assay is the chick embryo chorioallantoic membrane (CAM) assay described by Crum et al. Science 230:1375 (1985). See also, U.S. Pat. No. 5,001,116, hereby incorporated by reference, which describes the CAM assay. Briefly, fertilized chick embryos are removed from their shell on day 3 or 4, and a methylcellulose disc containing the drug is implanted on the chorioallantoic membrane. The embryos are examined 48 hours later and, if a clear avascular zone appears around the methylcellulose disc, the diameter of that zone is measured.

Assay [3] concerns HUVEC: non-transformed early passage human umbilical vein endothelial cells. Briefly: In vitro anti-proliferative activity, BrdU incorporation, HUVEC. Format: cell-based. As to conditions: 50% inhibition of proliferation, BrdU incorporation into DNA. The method, then: as §1
The next assay relates to U87-MG: glioblastoma. The experiment in a line: In vitro anti-proliferative activity, BrdU incorporation, U87-MG. Format: cell-based. As to conditions: U87-MG cells, 50% inhibition of proliferation, BrdU incorporation into DNA. The method, then:
as §1

A word on the IC50: it is the midpoint of a concentration-inhibition curve. A lower IC50 goes with higher potency.

As for `COc1cc2c(cc1O)CC[C@@H]1[C@@H]2CC[C@]2(C)[C@@H](O)CC[C@@H]12` [Compound 1, 2-methoxyestradiol, reference compound], the half-inhibitory concentration (IC50) in the assay on PC3: prostate cancer (Homo sapiens, PC-3) worked out at 1080 ± 500 nM; in assay [1] (Homo sapiens) it was 690 ± 140 nM; in assay [3] (Homo sapiens), 680 ± 150 nM. Further, the “inhibition of cell mitosis and growth of new blood vessels (CAM)” value in assay [2] was “inhibit cell mitosis and the growth of new blood vessels”.

In the case of `COc1cc2c(cc1OS(N)(=O)=O)CC[C@@H]1[C@@H]2CC[C@]2(C)C(=O)CC[C@@H]12` [Compound 19, 3-sulfamate-2-methoxyestra-1,3,5(10)-trien-17-one], the 50% inhibitory concentration (IC50) with PC3: prostate cancer was 510 ± 240 nM; in assay [1], 600 ± 430 nM; in the assay on U87-MG: glioblastoma, 800 ± 230 nM; in assay [3] it was 180 ± 40 nM.

`COc1cc2c(cc1OS(N)(=O)=O)CC[C@@H]1[C@@H]2CC[C@]2(C)C(C)CC[C@@H]12` (stereo partly drawn) [Compound 118, 3-sulfamate-17-methyl-2-methoxyestra-1,3,5(10)-triene]: the IC50 in the assay on PC3: prostate cancer was 820 ± 60 nM; in assay [1], 660 ± 100 nM; in the assay with U87-MG: glioblastoma, 640 ± 10 nM; in assay [3], 590 ± 100 nM.

For the compound `CCOc1cc2c(cc1NC=O)CC[C@@H]1[C@@H]2CC[C@]2(C)C(=O)CC[C@@H]12` [Compound 44A, 3-Formamide-2-ethoxyestra-1,3-5(10)-trien-17-one], the IC50 with PC3: prostate cancer is 27700 ± 620 nM; in assay [1], 24900 ± 5630 nM; in the assay on U87-MG: glioblastoma, 21100 nM; in assay [3], 13200 ± 2200 nM.

Consider `COc1cc2c(cc1C(N)=O)CC[C@@H]1[C@@H]2CC[C@]2(C)C(=O)CC[C@@H]12` [Compound 31, 2-methoxy-3-carboxamideestra-1,3,5(10)-triene-17-one], for which the IC50 in the assay with PC3: prostate cancer worked out at 700 ± 30 nM; in assay [1], 700 ± 120 nM; in the assay on U87-MG: glioblastoma, 1070 ± 150 nM; in assay [3], 790 ± 200 nM.

In the case of `CCOc1cc2c(cc1N)CC[C@@H]1[C@@H]2CC[C@]2(C)C(=O)CC[C@@H]12` [Compound 35, 3-Amino-2-ethoxyestra-1,3,5(10)-trien-17-one], the IC50 with PC3: prostate cancer (Homo sapiens, PC-3) was 9250 ± 1580 nM; in assay [1] (Homo sapiens) it was 10600 ± 2980 nM; with U87-MG: glioblastoma (Homo sapiens, U-87 MG), 26000 ± 1400 nM; in assay [3] (Homo sapiens) it was 16500 ± 2020 nM.

On to `COc1cc2c(cc1N)CC[C@@H]1[C@@H]2CC[C@]2(C)C(=O)CC[C@@H]12` [Compound 34, 3-amino-2-methoxyestra-1,3,5(10)-trien-17-one], for which the IC50 is greater than 100000 nM with PC3: prostate cancer (Homo sapiens, PC-3); 46900 ± 8150 nM in assay [1] (Homo sapiens); 81500 ± 20400 nM with U87-MG: glioblastoma (Homo sapiens, U-87 MG); 23400 ± 4140 nM in assay [3] (Homo sapiens).

Take `CCOc1cc2c(cc1OS(N)(=O)=O)CC[C@@H]1[C@@H]2CC[C@]2(C)C(=O)CC[C@@H]12` [Compound 20, 3-sulfamate-2-ethoxyestra-1,3,5(10)-trien-17-one]: the IC50 with PC3: prostate cancer amounted to 8930 ± 610 nM; in assay [1] it was 7520 ± 2040 nM; in the assay with U87-MG: glioblastoma, 19800 ± 2320 nM; in assay [3] it was 2590 ± 250 nM.

Consider `C=C1CC[C@H]2[C@@H]3CCc4cc(N)c(OCC)cc4[C@H]3CC[C@]12C` [Compound 86, 3-amino-17-methylene-2-ethoxyestra-1,3,5(10)-triene], for which the IC50 in the assay on PC3: prostate cancer (Homo sapiens, PC-3) worked out at 2750 ± 220 nM; in assay [1] (Homo sapiens), 2130 ± 120 nM; with U87-MG: glioblastoma (Homo sapiens, U-87 MG), 7290 ± 2260 nM; in assay [3] (Homo sapiens), 2310 ± 50 nM.

Consider `C=Cc1cc2c(cc1OC)[C@H]1CC[C@]3(C)CCC[C@H]3[C@@H]1CC2` [Compound 52, 3-Vinyl-2-methoxyestra-1,3,5(10)-triene], for which the IC50 in the assay with PC3: prostate cancer (Homo sapiens, PC-3) was determined as 2120 ± 640 nM; in assay [1] (Homo sapiens), 1860 ± 220 nM; in the assay with U87-MG: glioblastoma (Homo sapiens, U-87 MG), 3140 ± 520 nM; in assay [3] (Homo sapiens), 580 ± 40 nM.

For `C=C1CC[C@H]2[C@@H]3CCc4cc(OS(N)(=O)=O)c(OC)cc4[C@H]3CC[C@]12C` [Compound 70, 17-methylene-3-sulfamate-2-methoxyestra-1,3,5(10)-triene], the IC50 in the assay on PC3: prostate cancer was 910 ± 320 nM; in assay [1] it was 560 ± 20 nM; in the assay with U87-MG: glioblastoma it was 700 ± 60 nM; in assay [3] it was 580 ± 30 nM.

Take `COc1cc2c(cc1N)CC[C@@H]1[C@@H]2CC[C@]2(C)C(C)CC[C@@H]12` (stereo partly drawn) [Compound 133, 3-amino-17-methyl-2-methoxyestra-1,3,5(10)-triene]: the IC50 in the assay on PC3: prostate cancer (Homo sapiens, PC-3) was found to be 7160 ± 1420 nM; in assay [1] (Homo sapiens), 7310 ± 580 nM; in the assay on U87-MG: glioblastoma (Homo sapiens, U-87 MG) it was 14870 ± 10 nM; in assay [3] (Homo sapiens), 2650 ± 770 nM.
